# In patent US20240408069A1, “NON-INVASIVE MONITORING OF LIVER DISEASE TREATMENT” (INVENTIVA, priority 2023, published 2024):
# Assays:
# [1] = system: adult patients with highly active, non-cirrhotic NASH; experiment: NATIVE phase 2b trial, histological response on liver biopsy after 24 weeks of lanifibranor; type: in vivo, human
# From the text: Patients were eligible for inclusion if they were 18 years of age or older and had non-cirrhotic NASH (the diagnosis of which required a Steatosis, Activity, Fibrosis [SAF] grade of 1 or higher for steatosis, hepatocellular ballooning and lobular inflammation on liver biopsy). A score of 3 or higher on the SAF-A (the activity part of the SAF scoring system that incorporates the scores for hepatocellular ballooning and lobular inflammation) was also a criterion for eligibility. Patients with stage F4 fibrosis, classified according to the criteria of both the SAF and NASH Clinical Research Network (NASH CRN) were excluded from the study. Patients were randomly assigned in a 1:1:1 ratio to receive 800 or 1200 mg lanifibranor or placebo once daily for 24 weeks. Liver biopsy was obtained at baseline and at the end of treatment. The primary end point of the NATIVE study was defined as a decrease of at least 2 points from baseline to Week 24 (end of treatment) in the SAF-A score and no worsening of fibrosis. Secondary histologic end points included resolution of NASH (defined as a ballooning grade of 0 and a lobular inflammation grade of ≤1) and no worsening of fibrosis; improvement in fibrosis of at least 1 stage and no worsening of NASH (i.e., no worsening in either steatosis, ballooning, or lobular inflammation); Nonalcoholic Fatty Liver Disease Activity Score (NAS) improvement (defined as a decrease of >2 points from baseline to week 24 in the NAS) and no worsening of fibrosis; resolution of NASH and an improvement in fibrosis stage of at least 1 (as a composite end point); change in scores for the components of the SAF and NASH CRN scoring system (steatosis, activity, inflammation, ballooning, and fibrosis); and change in the modified Ishak score. Non-histologic secondary endpoints included changes in a panel of serum biomarkers related to metabolism, inflammation tissue injury and fibrosis. Patients receiving lanifibranor 800 or 1200 mg per day were pooled and those with pre- and post-treatment liver biopsies were selected (n=142). Post-treatment biopsies were considered if they occurred within 14 days following last lanifibranor intake. The following histological endpoint according to NASH-CRN criteria was considered: NASH resolution and fibrosis improvement of at least 1 stage (E1). In the NATIVE trial, from February 2017 through July 2019, 247 patients were randomly assigned to receive 1200 mg of lanifibranor (N=83), 800 mg of lanifibranor (N=83), or placebo (N=81) orally once daily for 6 months. A total of 228 patients completed the trial, 77 in each lanifibranor group and 74 in the placebo group. Reasons for discontinuation of the trial regimen have been reported elsewhere. Finally, among the 154 patients treated with lanifibranor at both doses, 142 patients (N=70 and N=72 patients treated with 800 or 1200 mg per day, respectively) presented with pre- and post-treatment liver biopsies within the time frame required for the present work and were included in the analysis population for signature development.
# [2] = system: adult patients with highly active, non-cirrhotic NASH; conditions: cited from earlier work
compound,measurement,setting,value
"O=C(O)CCCc1cc2cc(Cl)ccc2n1S(=O)(=O)c1ccc2ncsc2c1 [lanifibranor, 4-[1-(1,3-benzothiazol-6-ylsulfonyl)-5-chloroindol-2-yl] butanoic acid]","Resolution of NASH and improvement of liver fibrosis ≥1 Stage (E1), number of patients reaching endpoint","[1]; 800 mg once daily, N=70",17 patients
same,"Resolution of NASH and improvement of liver fibrosis ≥1 Stage (E1), patients reaching endpoint","[1]; 800 mg once daily, N=70",24%
same,"Resolution of NASH and improvement of liver fibrosis ≥1 Stage (E1), number of patients reaching endpoint","[1]; 1200 mg once daily, N=72",25 patients
same,"Resolution of NASH and improvement of liver fibrosis ≥1 Stage (E1), patients reaching endpoint","[1]; 1200 mg once daily, N=72",35%
same,"Resolution of NASH and improvement of liver fibrosis ≥1 Stage (E1), number of patients reaching endpoint","[1]; pooled lanifibranor group (800 or 1200 mg once daily), N=142",42 patients
same,"Resolution of NASH and improvement of liver fibrosis ≥1 Stage (E1), patients reaching endpoint","[1]; pooled lanifibranor group (800 or 1200 mg once daily), N=142 with pre- and post-treatment biopsies",30%
same,"Percentage of patients with a decrease of at least 2 points in SAF-A score without worsening of fibrosis, compared to placebo","[2]; daily dose of 1200 mg, versus placebo",significantly higher
same,"Secondary endpoints (NASH resolution and fibrosis improvement, NASH resolution without worsening of fibrosis, improvement of fibrosis without worsening of NASH), compared to placebo","[2]; lanifibranor groups versus placebo, NASH-CRN",more favorable than placebo
